From patent US9995734B2, “Human T cell line assay for evaluating the immunologic identity of glatiramer acetate preparations” (Mylan Inc., priority 2013, dated 2018)

Key:
[1] = test system: Donor 3 GMA Responsive T Cells; experiment: Cytokine multiplex assay, Donor 3 GMA responsive T cells; format: cell-based, human; details: culture medium
Description: (§1) The concentration of multiple cytokines was measured simultaneously using FlowCytoMix™ kits (eBioscience, San Diego Calif.). These are fluorescent bead based assays consisting of beads conjugated to anti cytokine antibodies. Beads specific for each cytokine are distinguished by size and fluorescence at 670 run. Cytokine bound to each bead is detected using a phycoerythrin conjugated antibody so that the fluorescence at 585 nm reflects the concentration of cytokine in the sample. Two kits were utilized which measured different cytokine panels. The TH1/TH2 kit measures IFN-γ, IL-1β, IL-2, IL-4, IL-5, IL-6, IL-8, IL-10, IL-12p70, TNF-α (TNF) and TNF-β (LT). The TH1/TH2/TH9/TH17/TH22 kit measures […], IL-1β, IL-2, IL-4, IL-5, IL-6, IL-9, IL-10, IL-12p70, IL-13, IL-17, IL-22, and TNF-α (TNF). Both kits were used following the manufacturer's instructions.

[2] = test system: Donor 4 COP Responsive T-Cell Lines; experiment: Multiplex bead cytokine assay (FlowCytomix), Donor 4 COP responsive T-cell lines; format: cell-based, human; set-up: IFN-γ / 1L-9 / IL-22 / IL-13: unit not given here
Description: as §1
On Day 23 the positive wells (cell lines listed in Table 26) were transferred to a 24-well plate and restimulated with 10 μg/mL COP in the presence of mitomycin-treated autologous PBMC. IL-2 was added at Day 24. On Day 31 (after four rounds of restimulation) ten lines were restimulated with 10 μg/mL COP to confirm antigen reactivity by a cytokine secretion assay. T-cells were added at 2×10^4 cells/well in 96-well plates in X-VIVO 15 medium. Each line was separately stimulated with 10 μg/mL GMA, and 10 μg/mL COP in the presence of (2×10^5 cells/well, i.e., 1×10^6 cells/mL) mitomycin-treated autologous PBMC. Culture medium was collected after 20-24 hours for cytokine assay (FlowCytomix multiplex bead assay). The supernatants were tested in triplicate for IL-12 p70, IFN-γ, IL-2, IL-10, IL-6, IL-4, IL-5, TNF-α, and TNF-β secretion. […] Secretion of IL-2, 11-10, and IL-4 varied among the lines. All samples also secreted IL-8 (data not shown).
Culture medium from each of two Donor 4 cell lines was assayed for an extended panel of cytokines, showing production of IL-13 and IL-22 (Table 32).

[3] = T-cell line 1H9, 10 μg/mL, Day 31, medium after 20-24 hours
[4] = T-cell line 1H11, 10 μg/mL, Day 31, medium after 20-24 hours
[5] = T-cell line 205-1B4, extended cytokine multiplex assay
[6] = T-cell line 205-1B7, 10 μg/mL, Day 31, medium after 20-24 hours
[7] = T-cell line 205-1C4, 10 μg/mL, Day 31, medium after 20-24 hours
[8] = T-cell line 205-1F4, extended cytokine multiplex assay
[9] = T-cell line 205-1F5, 10 μg/mL, Day 31, medium after 20-24 hours
[10] = T-cell line 205-1G3, 10 μg/mL, Day 31, medium after 20-24 hours
[11] = T-cell line 205-1H5, 10 μg/mL, Day 31, medium after 20-24 hours
[12] = T-cell line 205-1H7, 10 μg/mL, Day 31, medium after 20-24 hours

## glatiramer acetate [GMA]
[1]; T-cell line 165-B5G
  IFN-γ: 201 pg/mL
  IL-4: 47 pg/mL
  IL-5: 399 pg/mL
  IL-13: 2930 pg/mL
  IL-22: 248 pg/mL
[1]; T-cell line 165-D8G
  IFN-γ: 121 pg/mL
  IL-4: 12 pg/mL
  IL-5: 309 pg/mL
  IL-13: 3326 pg/mL
  IL-22: 405 pg/mL
[1]; T-cell line 165-E9G
  IFN-γ: 837 pg/mL
  IL-4: 6 pg/mL
  IL-5: 236 pg/mL
  IL-13: 1499 pg/mL
  IL-22: 245 pg/mL
[1]; T-cell line 165-F8G
  IFN-γ: 889 pg/mL
  IL-4: 5 pg/mL
  IL-5: 370 pg/mL
  IL-13: 1193 pg/mL
  IL-22: 197 pg/mL
[1]; T-cell line 165-F10G
  IFN-γ: 1108 pg/mL
  IL-4: 114 pg/mL
  IL-5: 2589 pg/mL
  IL-13: 10897 pg/mL
  IL-22: 680 pg/mL
[1]; T-cell line 165-H11G
  IFN-γ: 724 pg/mL
  IL-4: 7 pg/mL
  IL-5: 320 pg/mL
  IL-13: 1058 pg/mL
  IL-22: 201 pg/mL
[2]; [3]
  IFN-y: 182.77 pg/mL
  IL-2: <=0 pg/mL
  IL-4: <=0 pg/mL
  IL-5: <=0 pg/mL
  IL-6: 74.92 pg/mL
  IL-10: <=0 pg/mL
  IL-12 p70: <=0 pg/mL
  TNF-α: 161.89 pg/mL
  TNF-β: <=0 pg/mL
[2]; [4]
  IFN-y: 929 pg/mL
  IL-2: 22.78 pg/mL
  IL-4: <=0 pg/mL
  IL-5: 3349.8 pg/mL
  IL-6: 28.28 pg/mL
  IL-10: 145 pg/mL
  IL-12 p70: 2.24 pg/mL
  TNF-α: 609.49 pg/mL
  TNF-β: <=0 pg/mL
[2]; [5]
  1L-9: 21
  IFN-γ: 713
  IL-2: 0
  IL-4: 117
  IL-5: 3104
  IL-6: 109
  IL-10: 25
  IL-13: 13895
  IL-22: 478
  TNF-α: 868
[2]; [6]
  IFN-y: 828.5 pg/mL
  IL-2: 10.89 pg/mL
  IL-4: 187.29 pg/mL
  IL-5: 6854.13 pg/mL
  IL-6: 187.85 pg/mL
  IL-10: 182.81 pg/mL
  IL-12 p70: 44.57 pg/mL
  TNF-α: 1305.37 pg/mL
  TNF-β: 217.5 pg/mL
[2]; [7]
  IFN-y: 1046.32 pg/mL
  IL-2: 312.13 pg/mL
  IL-4: 124.7 pg/mL
  IL-5: 5434.06 pg/mL
  IL-6: 149.35 pg/mL
  IL-10: 45.24 pg/mL
  IL-12 p70: 46.89 pg/mL
  TNF-α: 1059.01 pg/mL
  TNF-β: 81.04 pg/mL
[2]; [8]
  1L-9: 7
  IFN-γ: 1207
  IL-2: 76
  IL-4: 7
  IL-5: 1459
  IL-6: 73
  IL-10: 16
  IL-13: 4506
  IL-22: 186
  TNF-α: 323
[2]; [9]
  IFN-y: 479.26 pg/mL
  IL-2: 197.46 pg/mL
  IL-4: 328.72 pg/mL
  IL-5: 13930.97 pg/mL
  IL-6: 314.54 pg/mL
  IL-10: 231.63 pg/mL
  IL-12 p70: 67.53 pg/mL
  TNF-α: 1084.01 pg/mL
  TNF-β: 260.35 pg/mL
[2]; [10]
  IFN-y: 193.91 pg/mL
  IL-2: 5.27 pg/mL
  IL-4: <=0 pg/mL
  IL-5: 121.17 pg/mL
  IL-6: 16.67 pg/mL
  IL-10: <=0 pg/mL
  IL-12 p70: 2.37 pg/mL
  TNF-α: 68.79 pg/mL
  TNF-β: 17.66 pg/mL
[2]; [11]
  IFN-y: 902.95 pg/mL
  IL-2: <=0 pg/mL
  IL-4: 46.82 pg/mL
  IL-5: 2534.09 pg/mL
  IL-6: 52.4 pg/mL
  IL-10: <=0 pg/mL
  IL-12 p70: 8.78 pg/mL
  TNF-α: 910.83 pg/mL
  TNF-β: 79.8 pg/mL
[2]; [12]
  IFN-y: 1275.97 pg/mL
  IL-2: 176.52 pg/mL
  IL-4: 58.41 pg/mL
  IL-5: 96.95 pg/mL
  IL-6: 64.82 pg/mL
  IL-10: <=0 pg/mL
  IL-12 p70: 13.42 pg/mL
  TNF-α: 552.89 pg/mL
  TNF-β: 34.81 pg/mL
[2]; most tested Donor 4 cell lines, Day 31, 10 μg/mL, 20-24 hours
  cytokine secretion: secreted IFN-γ, IL-5, and TNF-α
